Measurements reported in paper PMC6979384, “Characterization of the plant homeodomain (PHD) reader family for their histone tail interactions” (Epigenetics & Chromatin, 2020).

Key:
Test in all cases: Histone peptide microarray
Format in all cases: binding, human
ING5 = conditions: ING5, GST-tagged; arrays performed twice, n of 4
In short: (§1)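 Mean ± SD of 4 replicate array intensities; GST-PHD finger at 0.5 μM against 293 PTM-bearing histone peptides.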

SP140L = conditions: SP140L, GST-tagged; arrays performed twice, n of 4
In short: as §1

PHF23 = conditions: PHF23, GST-tagged; arrays performed twice, n of 4
In short: as §1

TRIM66 (PB) = conditions: TRIM66 (PB), GST-tagged; arrays performed twice, n of 4
In short: as §1

TAF3 = conditions: TAF3, GST-tagged; arrays performed twice, n of 4
In short: as §1

CHD5 (PPCC) = conditions: CHD5 (PPCC), GST-tagged; arrays performed twice, n of 4
In short: as §1

ING1 = conditions: ING1, GST-tagged; arrays performed twice, n of 4
In short: as §1

PHRF1 (RP) = conditions: PHRF1 (RP), GST-tagged; arrays performed twice, n of 4
In short: as §1

BAZ2B = conditions: BAZ2B, GST-tagged; arrays performed twice, n of 4
In short: as §1

BPTF (PB) = conditions: BPTF (PB), GST-tagged; arrays performed twice, n of 4
In short: as §1

AIRE (PP) = conditions: AIRE (PP), GST-tagged; arrays performed twice, n of 4
In short: as §1

MORC3 (CW) = conditions: MORC3 (CW), GST-tagged; arrays performed twice, n of 4
In short: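 GST-tagged PHD finger readers were expressed, purified and applied at 0.5 μM to a microarray of 293 synthetic histone peptides carrying single or combinatorial PTMs, using an optimized protocol. Binding signals are averages with standard deviation from 4 replicates.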

MLL5 = conditions: MLL5, GST-tagged; arrays performed twice, n of 4
In short: as §1

KDM5B (1) = conditions: KDM5B (1), GST-tagged; arrays performed twice, n of 4
In short: as §1

PHF13 = conditions: PHF13, GST-tagged; arrays performed twice, n of 4
In short: as §1

PHF21A = conditions: PHF21A, GST-tagged; arrays performed twice, n of 4
In short: as §1

DPF2 (PPC2W2) = conditions: DPF2 (PPC2W2), GST-tagged; arrays performed twice, n of 4
In short: as §1

KDM5B (3) = conditions: KDM5B (3), GST-tagged; arrays performed twice, n of 4
In short: as §1

ING3 = conditions: ING3, GST-tagged; arrays performed twice, n of 4
In short: as §1

CHD5 (PCC) = conditions: CHD5 (PCC), GST-tagged; arrays performed twice, n of 4
In short: as §1

RAG2 = conditions: RAG2, GST-tagged; arrays performed twice, n of 4
In short: as §1

KDM7A = conditions: KDM7A, GST-tagged; arrays performed twice, n of 4
In short: as §1

KDM5A (1) = conditions: KDM5A (1), GST-tagged; arrays performed twice, n of 4
In short: as §1

KDM5A (3) = conditions: KDM5A (3), GST-tagged; arrays performed twice, n of 4
In short: as §1

PHF2 = conditions: PHF2, GST-tagged; arrays performed twice, n of 4
In short: as §1

PHF8 = conditions: PHF8, GST-tagged; arrays performed twice, n of 4
In short: as §1

CHD4 (PPCC) = conditions: CHD4 (PPCC), GST-tagged; arrays performed twice, n of 4
In short: as §1

ING2 = conditions: ING2, GST-tagged; arrays performed twice, n of 4
In short: as §1

KDM4C (TTP) = conditions: KDM4C (TTP), GST-tagged; arrays performed twice, n of 4
In short: as §1

DIDO1 = conditions: DIDO1, GST-tagged; arrays performed twice, n of 4
In short: as §1

ING4 = conditions: ING4, GST-tagged; arrays performed twice, n of 4
In short: as §1

Q: Which results are given for H3K27acK36me1 (21-44): H3 21-44?
A: Array Heatmap value (peptide array binding signal) (ING5): 0.4437; Array Heatmap value (peptide array binding signal) (SP140L): 0.402; Array Heatmap value (peptide array binding signal) (PHF23): 0.594; Array Heatmap value (peptide array binding signal) (TRIM66 (PB)): 0.6284; Array Heatmap value (peptide array binding signal) (TAF3): 0.3058; Array Heatmap value (peptide array binding signal) (CHD5 (PPCC)): 0.6612; Array Heatmap value (peptide array binding signal) (ING1): 0.6463; Array Heatmap value (peptide array binding signal) (PHRF1 (RP)): 0.5526; Array Heatmap value (peptide array binding signal) (BAZ2B): 0.5322; Array Heatmap value (peptide array binding signal) (BPTF (PB)): 0.4151; Array Heatmap value (peptide array binding signal) (AIRE (PP)): 0.4899; Array Heatmap value (peptide array binding signal) (MORC3 (CW)): 0.41; Array Heatmap value (peptide array binding signal) (MLL5): 0.6075; Array Heatmap value (peptide array binding signal) (KDM5B (1)): 0.7243; Array Heatmap value (peptide array binding signal) (PHF13): 0.7148; Array Heatmap value (peptide array binding signal) (PHF21A): 0.5223; Array Heatmap value (peptide array binding signal) (DPF2 (PPC2W2)): 0.7332; Array Heatmap value (peptide array binding signal) (KDM5B (3)): 0.4928; Array Heatmap value (peptide array binding signal) (ING3): 0.5657; Array Heatmap value (peptide array binding signal) (CHD5 (PCC)): 0.8019; Array Heatmap value (peptide array binding signal) (RAG2): 0.2901; Array Heatmap value (peptide array binding signal) (KDM7A): 0.3972; Array Heatmap value (peptide array binding signal) (KDM5A (1)): 0.5728; Array Heatmap value (peptide array binding signal) (KDM5A (3)): 0.5161; Array Heatmap value (peptide array binding signal) (PHF2): 0.6877; Array Heatmap value (peptide array binding signal) (PHF8): 0.4123; Array Heatmap value (peptide array binding signal) (CHD4 (PPCC)): 0.6736; Array Heatmap value (peptide array binding signal) (ING2): 0.6555; Array Heatmap value (peptide array binding signal) (KDM4C (TTP)): 0.5731; Array Heatmap value (peptide array binding signal) (DIDO1): 0.819; Array Heatmap value (peptide array binding signal) (ING4): 0.5489
